Measurements as given in US20160081968A1, “COMPOSITION FOR USE IN REDUCING SCAB FORMATION AND PROMOTING HEALING” (BIOGLAN AB, priority 2013, published 2016).

System: bacteria (e.g. S. aureus, B. subtilis, Pseud. aeuruginosa)
Experiment: Antimicrobial activity of glyceryl monolaurate
Assay type: cell-based
Description: The compositions have an inbuilt antimicrobial system which gives less need for preservatives. The antimicrobial activity of the composition is partly due to the presence of hydrogen peroxide and partly due to the presence of glyceryl monolaurate. […] In combination with hydrogen peroxide, a synergistic effect is achieved and antimicrobial activity according to A criteria is obtained against also yeast (e.g. Candida albicans) and molds (Aspergillus niger). This was shown by performing a preservative effectiveness test according to the PhEur method. Acceptance criteria A is the most strict criteria according to PhEur. Criteria B is less strict.

CCCCCCCCCCCC(=O)OCC(O)CO (stereo not shown) [Glyceryl monolaurate]
antimicrobial activity against bacteria: antimicrobially active against bacteria
